The text below walks through data of patent US7105184B2, “Cosmetic and/or dermopharmaceutical preparations containing leaf extracts of the plant Argania spinosa” (Cognis France S.A., priority 2000, dated 2006).

Assay [1] relates to collagenase from Chlostridium histolyticum. Put plainly: Collagenase inhibition, substrate C FALGPA. It counts as biochemical. The conditions noted are these: 30 min, 20° C. The method, then:
(§1) The biochemical test of collagenase inhibition was realized with a collagenase from Chlostridium histolyticum in a chromogenic synthetic substrate C: FALGPA (furylacryloyl-Leu-Gly-Pro-Ala), a specific substrate for collagenase, which […] by the enzyme. This substrate was obtained from SIGMA.
(§2) The amount of extracts used was 0.3% by weight, and the incubation time was 30 min (20° C.). The inhibition was investigated by determining the optical density “OD” at 234 nm.

For assay [2], the target named is collagenase from Chlostridium histolyticum. The experiment in a line: Collagenase inhibition, chromogenic synthetic substrate C (FALGPA). It counts as biochemical. The conditions noted are these: incubation 30 min, 20° C., OD at 234 nm. Here is the method: as §1, §2
A further assay concerns Human MMP-1. The experiment in a line: Release of MMP-1 from dermal fibroblasts with and without UVA radiation. It counts as cell-based. The conditions noted are these: concentration 0.1 μM. The source says:
The ability of leaf extracts from Argania spinosa to reduce the toxic effect of UVA rays was investigated. This in vitro test investigates the ability to reduce the content of matrix metalloproteinases, such as, for example, MMP-1, which are released by human fibroblasts following UVA radiation. More MMP are released under the influence of UVA radiation. UVA rays were chosen as the model since they penetrate into the dermis, where they induce oxidative stress, which accelerates skin aging. Furthermore, it is already known that the release of matrix metalloproteinases increases during the normal aging process of the skin. Inhibition of the MMP would thus counteract the aging process of the skin. The in vitro system used was a culture of dermal fibroblasts, and the parameter determined was the release of MMP-1 from these fibroblasts under the influence of UV radiation. To carry out the experiment, a fibroblast culture was prepared in a defined culture medium (DMEM) with fetal calf serum and inoculated 2–3 days later with the test substances. […] The abbreviation TIMP is understood as meaning a naturally occurring inhibitor of the metalloproteinase under the name “tissue inhibitor of matrix metalloproteinase”. The MMP and TIMP were determined using two different kits, which are commercially available under the name RPN2610 and RPN2611 from Amersham. […]

The subject of the next assay is TIMP-1. The experiment in a line: Content of TIMP-1 in dermal fibroblast culture with and without UVA radiation. It counts as cell-based, human. The conditions noted are these: concentration 0.1 μM. Here is the method:
To carry out the experiment, a fibroblast culture was prepared in a defined culture medium (DMEM) with fetal calf serum and inoculated 2–3 days later with the test substances. […] The abbreviation TIMP is understood as meaning a naturally occurring inhibitor of the metalloproteinase under the name “tissue inhibitor of matrix metalloproteinase”. The MMP and TIMP were determined using two different kits, which are commercially available under the name RPN2610 and RPN2611 from Amersham. The data given is the amount of MMP-1 and TIMP-1 in ng/ml from a test series with triple determination.

Assay [3] has as its system MMP-1 released by human dermal fibroblasts. The experiment in a line: Release of MMP-1 by dermal fibroblasts with and without UVA radiation. It counts as cell-based. The source says: (§3) The ability of leaf extracts from Argania spinosa to reduce the toxic effect of UVA rays was investigated. This in vitro test investigates the ability to reduce the content of matrix metalloproteinases, such as, for example, MMP-1, which are released by human fibroblasts following UVA radiation. More MMP are released under the influence of UVA radiation. UVA rays were chosen as the model since they penetrate into the dermis, where they induce oxidative stress, which accelerates skin aging. Furthermore, it is already known that the release of matrix metalloproteinases increases during the normal aging process of the skin. Inhibition of the MMP would thus counteract the aging process of the skin.
(§4) The in vitro system used was a culture of dermal fibroblasts, and the parameter determined was the release of MMP-1 from these fibroblasts under the influence of UV radiation.
(§5) To carry out the experiment, a fibroblast culture was prepared in a defined culture medium (DMEM) with fetal calf serum and inoculated 2–3 days later with the test substances. […] After the end of the irradiation, the fibroblast culture was incubated again for 2 days, and then, on a sample of the supernatant of the culture solution, the content of MMP-1 and TIMP-1 was determined. […]
(§6) The MMP and TIMP were determined using two different kits, which are commercially available under the name RPN2610 and RPN2611 from Amersham. […]

The subject of assay [4] is TIMP-1 in human dermal fibroblast culture. The experiment in a line: Content of TIMP-1 in supernatant of dermal fibroblasts with and without UVA radiation. The format is cell-based.
Excerpt: as §3, §4, §5, §6

In assay [5] the test system is tyrosinase. Put plainly: Tyrosinase inhibition in tubo. It counts as biochemical. The note with it: L-DOPA substrate; dopachrome optical density 475 nm; concentration for 50% inhibition.
Protocol: (§8) Tyrosinase inhibition: L-DOPA was mixed with tyrosinase and the extract to be tested. The optical density of the dopachrome was analyzed at 475 nm. The kinetics were then investigated and the concentration for a 50% strength inhibition (EC50) was determined.
The test system of a further assay is B16 melanocytes. Put plainly: Inhibition of melanogenesis on B16 melanocytes. The format is cell-based. The note with it: concentration 0.0003% by wt.; ratio of proportion of proteins to content of melanin. Here is the method:
2. Inhibition of melanogenesis on B16 melanocytes: The B16 melanocytes are cultivated in a defined medium (DMEM with 10% fetal calf serum) and incubated for 3 days at 37° C. and 5% CO2. The growth medium was replaced by the defined medium without calf serum, which comprised a certain content of the extracts to be tested. After further incubation for 3 days, the proportion of intact cells was determined via the content of cell proteins in accordance with the Bradford method (Anal. Biochem. 72, 248–254, 1976), and the content of melanin formed was determined by analyzing the optical density at 475 nm in accordance with the method described by Ando et al. 17th IFSCC Congress—Yokohama, 2, 909–918, 1992.
The results were determined as activity index in the ratio of proportion of proteins to content of melanin: the greater the index, the higher the inhibition activity and the lower the stimulation of melanogenesis.

Assay [6] deals with Tyrosinase. The conditions noted are these: concentration for 50% inhibition; L-DOPA; dopachrome at 475 nm.
Protocol: as §8
Assay [7] deals with pancreas elastase (Homo sapiens, UniProt Q9UNI1). The experiment in a line: Inhibition of the elastase activity. It counts as biochemical. The note with it: natural substrate B (elastin/Congo Red); 30 min, 20° C. The method, then: (§7) Serine proteases, such as, for example, elastase or collagenase, bring about the degradation of elastin, proteoglycans and collagen and thus cause a weakening of the connective tissue. In the following test, the inhibiting properties of the extracts toward a pancreas elastase were investigated in two systems, firstly in a chromogenic synthetic substrate A and secondly in a natural substrate B (elastin/Congo Red). The amount of extracts used was 0.3% by weight, and the incubation time was 30 min (20° C.). The inhibition was monitored photometrically at 410 and 520 nm, and the standard used was α1-antitrypsin ([…]).

In assay [8] the target is pancreas elastase. The experiment in a line: Inhibition of the elastase activity. The format is biochemical. The conditions noted are these: chromogenic synthetic substrate A; 30 min, 20° C. The method, then:
as §7

Chain of pancreas elastase (Q9UNI1 19-258): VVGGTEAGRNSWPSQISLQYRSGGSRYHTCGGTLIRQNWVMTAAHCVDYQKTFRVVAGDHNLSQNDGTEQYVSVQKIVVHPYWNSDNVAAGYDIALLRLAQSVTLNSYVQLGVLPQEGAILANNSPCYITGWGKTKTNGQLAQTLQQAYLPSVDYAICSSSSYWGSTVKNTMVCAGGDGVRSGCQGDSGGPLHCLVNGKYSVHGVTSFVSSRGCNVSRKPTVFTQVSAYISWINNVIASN
Chain of pancreas elastase (Homo sapiens, UniProt Q9UNI1) (Q9UNI1 19-258): as above

For `N[C@@H](CS)C(=O)O` [Cystein], the “Collagenase inhibition IC50, Substrate C” value in assay [1] is reported as “IC50 = 1.56%”. Besides, the “IC50 (Collagenase inhibition)” value in assay [2] is “IC50 = 1.56%”.

For `C[C@@H]1C[C@H]2[C@@H]3CCC4=CC(=O)C=C[C@]4(C)[C@@]3(F)[C@@H](O)C[C@]2(C)[C@@]1(O)C(=O)CO` [Dexamethasone, dexamethasone], the MMP-1 in ng/ml came out at 7 ng/mL in the assay with Human MMP-1 (UVA 20 J/cm^2) and 2 ng/mL with Human MMP-1 (without UVA radiation). The TIMP-1 in ng/ml came out at 19 ng/mL with TIMP-1 (UVA 20 J/cm^2) and 39 ng/mL with TIMP-1 (without UVA radiation).

For `C[C@@H]1C[C@H]2[C@@H]3CCC4=CC(=O)C=C[C@]4(C)[C@@]3(F)[C@@H](O)C[C@]2(C)[C@@]1(O)C(=O)CO` [Dexamethasone], the “content of MMP-1 (in words)” value in assay [3] was “content of MMP-1 was already reduced”. Also, in assay [4], the “content of TIMP-1 (in words)” value is recorded as “reduction in the content of TIMP-1”.

Turning to `Oc1ccc(O)cc1` [Hydroquinone, hydroquinone], in the assay on tyrosinase [5], the “Tyrosinase in tubo EC50” value is “EC50 = 0.025%”. For the same compound, the “Melanin synthesis Index” value in the assay with B16 melanocytes is given as 2.21.

In the case of `Oc1ccc(O)cc1` [Hydroquinone], the “EC50 (Tyrosinase in tubo)” value at Tyrosinase [6] was “EC50 = 0.025%”.

α1-antitrypsin: in the assay with pancreas elastase [7], the “Elastase inhibition IC50, Substrate B” value was “IC50 = 0.034%”. For the same compound, the “Elastase inhibition IC50, Substrate A” value with pancreas elastase [8] is given as “IC50 = 0.01%”.
